From article PMC9579148 (European Journal of Medicinal Chemistry, 2022)
Residues, ends and D or L forms follow the SMILES beside them. *: point of attachment. Octanoyl = CCCCCCCC(=O)*; Boc = CC(C)(C)OC(=O)*

Tests used:
SARS-CoV-2 = conditions: read-out: anti-SARS-CoV-2 activity EC50; cited from earlier work
SARS-CoV-2 M^pro = SARS-CoV-2 M^pro (Severe acute respiratory syndrome coronavirus 2, UniProt P0DTD1); assay type: binding; conditions: ITC
[1] = Stability test in aqueous solution; assay type: physicochemical; conditions: PBS pH 7.0, 25 °C and 37 °C, 3, 6, 8 and 24 h, HPLC
[2] = tested on: SARS-CoV-2 RG2674 (South African); assay: Antiviral CPE reduction assay in Vero cells, RG2674; assay type: cell-based; conditions: 100 CCID50, CPE, 5 days
M^pro = conditions: octapeptide progenitor, earlier work; cited from earlier work

| Compound | EC50 (SARS-CoV-2) | Stoichiometry (N) (SARS-CoV-2 M^pro) | Cytotoxicity, Cell morphology (MCC) (Vero cells) | further results |
| --- | --- | --- | --- | --- |
| Cc1cc(C(=O)N[C@@H](C)C(=O)N[C@H](C(=O)N[C@@H](CC(C)C)C(=O)N[C@H](/C=C/C(=O)OCc2ccccc2)C[C@@H]2CCNC2=O)C(C)C)no1 [N3, reference compound] | 16.8 ± 1.7 µM | – | – | – |
| CC(C)(C)OC(=O)NCC(=O)N[C@@H](Cc1ccccc1)C(=O)N[C@H](C=O)Cc1c[nH]cn1 [compound 57, Boc-Gly-Phe-His-CHO] (Boc-Gly-Phe-His-aldehyde) | – | 0.991 ± 0.015 | ≥100 μM | – |
| CCCCCCCC(=O)NCC(=O)N[C@@H](Cc1ccccc1)C(=O)N[C@H](C=O)Cc1c[nH]cn1 [compound 58, Octanoyl-Gly-Phe-His-CHO] (Octanoyl-Gly-Phe-His-aldehyde) | – | 0.966 ± 0.013 | ≥100 μM | – |
| CC(=O)NCC(=O)N[C@@H](Cc1ccccc1)C(=O)N[C@H](C=O)Cc1c[nH]cn1 [compound 4, Ac-Gly-Phe-His-CHO] (Ac-Gly-Phe-His-aldehyde) | – | 1.040 ± 0.012 | ≥100 μM | Stability in aqueous solution [1]: stable; Antiviral activity (EC50) RG2674 [2]: ineffective |
| Ac-GGVLVQPG-NH2 [peptide 2] | 17.6 ± 2.4 µM | – | – | – |
| AT1001 | – | – | – | enzymatic inhibition activity (partial inhibition) (M^pro): about 30% |
